What was measured:
Hepatitis C virus [1] = assay: Antiviral activity against wild type HCV genotype 1b assessed as replication level; type: functional, Hepacivirus hominis; details: for EC50: Hepatitis C virus, genotype 1b
Hepatitis C virus [2] = assay: Antiviral activity against HCV genotype 1b expressing NS5A Y93H mutant assessed as replication level; type: functional, Hepacivirus hominis; details: for EC50: Hepatitis C virus, genotype 1b
Hepatitis C virus [3] = assay: Antiviral activity against HCV genotype 1b expressing NS5A L31F mutant assessed as replication level
Hepatitis C virus [4] = assay: Antiviral activity against HCV genotype 1b expressing NS5A L31M mutant assessed as replication level; type: functional, Hepacivirus hominis
Hepatitis C virus [5] = assay: Antiviral activity against HCV genotype 1b expressing NS5A L31V mutant assessed as replication level; type: functional, Hepacivirus hominis
Hepatitis C virus [6] = assay: Antiviral activity against HCV genotype 1b expressing NS5A L31M/Y93H mutant assessed as replication level; type: functional, Hepacivirus hominis
Hepatitis C virus [7] = assay: Antiviral activity against HCV genotype 1b expressing NS5A L31V/Y93H mutant assessed as replication level; type: functional, Hepacivirus hominis

In the case of COC(=O)N[C@H](C(=O)N1CCC[C@H]1c1ncc(-c2ccc(Oc3ccc(-c4cnc([C@@H]5CCCN5C(=O)[C@@H](NC(=O)OC)C(C)C)[nH]4)cc3)cc2)[nH]1)C(C)C, the EC50 (Hepatitis C virus [1]) is reported as 30 nM.

COC(=O)N[C@H](C(=O)N1C[C@@H](N=[N+]=[N-])C[C@H]1c1ncc(-c2ccc(-c3ccc(-c4cnc([C@@H]5C[C@H](N=[N+]=[N-])CN5C(=O)[C@@H](NC(=O)OC)C(C)C)[nH]4)cc3)cc2)[nH]1)C(C)C was tested, and the EC50 (Hepatitis C virus [1]) was 0.023 nM.

Work on COC(=O)N[C@H](C(=O)N1C[C@H](N=[N+]=[N-])C[C@H]1c1ncc(-c2ccc(-c3ccc(-c4cnc([C@@H]5C[C@@H](N=[N+]=[N-])CN5C(=O)[C@@H](NC(=O)OC)C(C)C)[nH]4)cc3)cc2)[nH]1)C(C)C yielded an EC50 (Hepatitis C virus [1]) of 0.0184 nM.

Compound COC(=O)N[C@H](C(=O)N1C[C@H](n2cc(C(=O)OC)nn2)C[C@H]1c1ncc(-c2ccc(-c3ccc(-c4cnc([C@@H]5C[C@@H](n6cc(C(=O)OC)nn6)CN5C(=O)[C@@H](NC(=O)OC)C(C)C)[nH]4)cc3)cc2)[nH]1)C(C)C has an EC50 (Hepatitis C virus [1]) of 0.0118 nM.

With COC(=O)N[C@H](C(=O)N1C[C@@H](n2cc(C(=O)OC)nn2)C[C@H]1c1ncc(-c2ccc(-c3ccc(-c4cnc([C@@H]5C[C@H](n6cc(C(=O)OC)nn6)CN5C(=O)[C@@H](NC(=O)OC)C(C)C)[nH]4)cc3)cc2)[nH]1)C(C)C the EC50 (Hepatitis C virus [1]) was > 10 nM.

For COC(=O)N[C@H](C(=O)N1CCC[C@H]1c1ncc(-c2ccccc2)[nH]1)C(C)C, the EC50 (Hepatitis C virus [1]) was > 1000 nM.

Compound COC(=O)N[C@H](C(=O)N1CCC[C@H]1c1ncc(-c2ccc(N=[N+]=[N-])cc2)[nH]1)C(C)C has an EC50 (Hepatitis C virus [2]) of 8 nM.

For COC(=O)N[C@H](C(=O)N1CCC[C@H]1c1nc(Br)c(-c2ccc(N=[N+]=[N-])cc2)[nH]1)C(C)C, the EC50 (Hepatitis C virus [3]) was 0.7 nM.

Work on COC(=O)N[C@H](C(=O)N1CCC[C@H]1c1nc(Br)c(-c2ccc(Oc3ccc(-c4[nH]c([C@@H]5CCCN5C(=O)[C@@H](NC(=O)OC)C(C)C)nc4Br)cc3)cc2)[nH]1)C(C)C yielded an EC50 (Hepatitis C virus [1]) of 0.05 nM.

With COC(=O)N[C@H](C(=O)N1CCC[C@H]1c1ncc(-c2ccc(-c3ccc(-c4cnc([C@@H]5CCCN5C(=O)[C@@H](NC(=O)OC)C(C)C)[nH]4)cc3)cc2)[nH]1)C(C)C [DACLATASVIR] the Activity (Hepatitis C virus [4]) was 99%, the EC50 (Hepatitis C virus [4]; Hepatitis C virus, genotype 1b) was 8.4 pM and the Activity (Hepatitis C virus [5]) was 158%. The EC50 (Hepatitis C virus [5]; Hepatitis C virus, genotype 1b) was 0.0717 nM, the Activity (Hepatitis C virus [6]) was 70% and the EC50 (Hepatitis C virus [6]; Hepatitis C virus, genotype 1b) was 18.3 nM. For the same compound, the Activity (Hepatitis C virus [2]) was 27%, the EC50 (Hepatitis C virus [2]) was 0.0623 nM and the Activity (Hepatitis C virus [7]) was 50%. The EC50 (Hepatitis C virus [7]; Hepatitis C virus, genotype 1b) was 38 nM, the Activity (Hepatitis C virus [1]) was 100% and the EC50 (Hepatitis C virus [1]) was 0.0026 nM.
